Measurements published in PubChem BioAssay (NCI).
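In this assay, cells in 96-well plates receive the compound at five concentrations for 48 hours. Endpoints are linearly interpolated between the surrounding concentrations. TGI denotes the concentration required for complete inhibition of growth.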

Tests used:
Assay in all cases: DTP human tumour cell line panel, 48 h
[1] = system: NCI-H23 lung
[2] = system: RXF 393 renal
[3] = system: NCI/ADR-RES ovarian
[4] = system: DU-145 prostate
[5] = system: T-47D breast
[6] = system: UACC-257 melanoma
[7] = system: EKVX NSCLC
[8] = system: SF-295 CNS
[9] = system: TK-10 renal
[10] = system: SR leukemia
[11] = system: SW-620 colon
[12] = system: K-562 leukemia
[13] = system: MDA-MB-435
[14] = system: NCI-H460 lung
[15] = system: RPMI-8226 leukemia
[16] = system: OVCAR-8 ovarian
[17] = system: COLO 205 colon
[18] = system: HOP-92 NSCLC
[19] = system: A549 NSCLC
[20] = system: U251 CNS
[21] = system: NCI-H522 lung
[22] = system: UACC-62 melanoma
[23] = system: SF-539 CNS
[24] = system: SK-MEL-5 melanoma
[25] = system: M14 melanoma
[26] = system: OVCAR-3 ovarian
[27] = system: OVCAR-5 ovarian
[28] = system: CCRF-CEM leukemia
[29] = system: ACHN renal
[30] = system: SNB-75 CNS
[31] = system: BT-549 breast
[32] = system: MDA-N
[33] = system: SF-268 CNS
[34] = system: LOX IMVI melanoma
[35] = system: HL-60(TB) leukemia
[36] = system: UO-31 renal
[37] = system: MOLT-4 leukemia
[38] = system: SK-MEL-28 melanoma
[39] = system: SK-MEL-2 melanoma
[40] = system: HCT-15 colon
[41] = system: HS 578T breast
[42] = system: HCT-116 colon
[43] = system: MDA-MB-231 breast
[44] = system: 786-0 renal
[45] = system: SN12C renal
[46] = system: OVCAR-4 ovarian
[47] = system: HT29 colon
[48] = system: A498 renal
[49] = system: PC-3 prostate
[50] = system: NCI-H226 lung
[51] = system: KM12 colon
[52] = system: HOP-62 NSCLC
[53] = system: SK-OV-3 ovarian
[54] = system: SNB-19 CNS
[55] = system: IGROV1 ovarian
[56] = system: HCC-2998 colon
[57] = system: CAKI-1 renal
[58] = system: MALME-3M melanoma
[59] = system: MCF7 breast

Measured: TGI

COCC1OC(OC2OCC3OC4(OCC(O)(C(C)OC)C5OCOC54)OC3C2OC)C(OC)C(O)C1OC1OC(C)C(OC)C(OC2OC(C)C3OC4(CC(O)C(OC5CC(OC6CC(C)([N+](=O)[O-])C(OC)C(C)O6)C(OC(=O)c6c(C)c(Cl)c(O)c(Cl)c6OC)C(C)O5)C(C)O4)OC3(C)C2O)C1O (stereo not given)
> 100 µM: [1] | [2] | [3] | [4] | [5] | [6] | [7] | [8] | [9] | [10] | [11] | [12] | [13] | [14] | [15] | [16] | [17] | [18] | [19] | [20] | [21] | [22] | [23] | [24] | [25] | [26] | [27] | [28] | [29] | [30] | [31] | [32] | [33] | [34] | [35] | [36] | [37] | [38] | [39] | [40] | [41] | [42] | [43] | [44] | [45] | [46] | [47] | [48] | [49] | [50] | [51] | [52] | [53] | [54] | [55] | [56] | [57]

CN1CCCN(C)CCCN(C)CCCN(C)CCC1
> 100 µM: [1] | [2] | [3] | [4] | [5] | [6] | [7] | [8] | [9] | [10] | [11] | [12] | [13] | [15] | [16] | [17] | [19] | [20] | [21] | [22] | [58] | [24] | [25] | [26] | [27] | [28] | [29] | [31] | [32] | [33] | [36] | [37] | [38] | [39] | [40] | [41] | [42] | [43] | [44] | [59] | [46] | [47] | [49] | [50] | [51] | [52] | [53] | [54] | [55] | [56] | [57]

c1ccc2[nH]c(C3CCCCO3)nc2c1 (stereo not given)
> 100 µM: [1] | [2] | [3] | [4] | [5] | [6] | [7] | [8] | [9] | [10] | [11] | [12] | [13] | [15] | [16] | [17] | [18] | [19] | [20] | [21] | [22] | [58] | [23] | [24] | [25] | [26] | [27] | [28] | [29] | [30] | [31] | [32] | [33] | [34] | [35] | [36] | [37] | [38] | [39] | [40] | [41] | [42] | [43] | [44] | [45] | [59] | [46] | [47] | [49] | [50] | [51] | [52] | [53] | [54] | [55] | [56] | [57]
